Reference: US20240016784A1, “Y BOX BINDING PROTEIN 1 INHIBITORS” (Oregon Health & Science University, priority 2020, published 2024)

Key:
[1] = test system: OVCAR8 OC tumors; assay: OVCAR8 xenograft combination study; format: in vivo, NOD-SCID mice; conditions: SU056 10 mg/kg daily, paclitaxel 5 mg/kg weekly, intraperitoneal, 28 days
Procedure: In a pharmacokinetics study in vivo, injection of 20 mg/kg SU056 led to a maximum serum concentration of 28.19 μg/mL with a T1/2 of ˜45 min. We then tested the synergism of paclitaxel and SU056 co-treatment in vivo in NOD-SCID mice implanted with OVCAR8 OC tumors as described above. Mice were given daily treatment of SU056 (10 mg/kg) and weekly treatment of paclitaxel (5 mg/kg) were administered intraperitoneally. […] This likely resulted from decreased paclitaxel efflux from OVCAR8 cells in the presence of SU056.
In vivo xenograft model and drug efficacy study: All animal experiments were reviewed and approved by the Animal Care and Use Committee of Stanford University, CA, USA. Luciferase tagged ID8 (2×10^6) or OVCAR8 (5×10^6) cells were implanted into the right flank of 6-7-week-old female C57BL/6 mice and NOD/SCID mice, respectively. Respective treatment began after tumors grew to 100-200 mm^3 diameters. The ID8 syngeneic mice model was treated with a vehicle (30% PEG-300 in saline), 20 mg/kg SU093, and 20 mg/kg SU056 intraperitoneally (IP) daily for 42 days. At the end of treatment, blood was collected from each mouse and analyzed for liver toxicity parameters, including Alanine Aminotransferase (ALT), Aspartate Aminotransferase (AST), and Alkaline Phosphatase (ALKP). […]

[2] = Tolerability of SU056 at increasing concentrations; format: in vivo; conditions: for death: different concentration; for tolerability: increasing concentrations
Text: FIGS. 15A-15E. […] SU056 treatment at increasing concentrations dose not challenge the dietary behavior as reflected by change in body weight FIG. 15A) Mice and FIG. 15B) Rat. […] Liver microsomes were used for the purpose of metabolic profiling.

[3] = test system: YB-1; assay: YB-1 expression in six ovarian cancer cell lines; format: cell-based; conditions: 2.5 μM for 12 h; six different OC cell lines
Procedure: Out of six targets identified, we selected proteins whose thermal shift is above 5° in the presence of SU056 for further study of protein expression after treatment. […] To study the in vivo effects of SU056 treatment, we analyzed ID8 tumor xenograft samples via immunohistochemistry (IHC). […] To identify the broader effects of SU056 on YB-1 and its downstream protein/activity in different ovarian cancer cell lines, we selected six different cell lines and treated them with SU056 (2.5 μM) for 12 h. Cells were analyzed for YB-1 and CD44 expression and Multidrug resistance 1 (MDR1, ABC pump mediated efflux). […] Finally, we tested the time kinetics and dose-dependent effects of SU056 on YB-1 expression. OVCAR4, OVCAR8, and SKOV3 cells were treated with SU056 (1, 2.5, and 5 μM) for 3, 6, 12, and 24 h and YB-1 expression was measured using YB-1 ELISA. […]
Total YB-1 sandwich ELISA: Total YB-1 protein level was analyzed using PathScan® Total YB1 Sandwich ELISA Kit (Cell Signaling, #12543) by following the manufacturer's protocol.
FIGS. 4A-4E: SU056 inhibits YB-1. […] FIG. 4C) Respective OC cells were treated with 2.5 μM SU056 for 12 h and YB-1 & CD44 expression and multidrug resistance activity was measured as described in the ‘method’ section. The % inhibition was calculated and compared to the control for the respective cell line. […]

[4] = test system: efflux of paclitaxel in OC cells; assay: Paclitaxel efflux assay; format: cell-based; conditions: SU056 co-treatment vs only paclitaxel-treated cells
Text: YB-1 is involved in the emergence of cisplatin and taxane drug resistance (Kang et al., 2013, Mo et al., 2016). Therefore, we tested whether SU056 synergizes with chemotherapies such as paclitaxel to modulate YB-1. To measure this, we performed a dose dependent combination study of SU056 and paclitaxel. […] ABCB1/MDR1 drug efflux pumps are also known to play an important downstream role with YB-1 in increased taxol efflux and subsequent TR in cancer. To evaluate whether SU056 affects drug efflux, we used Alexa Fluor-488-tagged paclitaxel to measure taxol efflux in vitro. […] Efflux is primarily driven by the ATP-binding cassette transporters (ABC pumps) present on the cell surface (Genovese et al., 2017). We examined the expression of MDR1 and YB-1 in OVCAR8 cells treated with vehicle, SU056, and paclitaxel combinations via Western blot.
Paclitaxel efflux assay: OC cells were treated with 5 nM Oregon Green™ 488-conjugated paclitaxel (Molecular Probes, #P22310) for 1 h. Cells were washed and incubated in phenol red-free DMEM media supplemented with 10% FBS. After each respective time point (30, 60, 120, 180 minutes), the media was collected and centrifuged to remove floating cells. The fluorescence intensity of efflux paclitaxel in media was read at Ex 496 and Em 524 using a multimode plate reader.
Combination index values for paclitaxel and SU056. […] FIG. 7C) Immunoblotting of YB-1 and MDR1. […]

O=C1OCC2=C1C(c1cccc(F)c1)c1cc3c(cc1N2CCO)OCO3 (stereo not shown) [SU056, 9-(3-fluorophenyl)-5-(2-hydroxyethyl)-6,9-dihydro-[1,3]dioxolo[4,5-g]furo[3,4-b]quinolin-8(5H)-one]
OC tumor growth [1]: significant reduction in OC tumor growth | death ([2]; mice): did not cause death | tolerability ([2]; mice): well tolerated | death ([2]; rat): did not cause death | tolerability ([2]; rat): well tolerated | inhibition of YB-1 expression [3]: 28-56% | efflux of Alexa Fluor-488-tagged paclitaxel [4]: significantly inhibits the efflux of paclitaxel
